From patent US8541441B2, “Selective glycosidase inhibitors and uses thereof” (Simon Fraser University, priority 2008, dated 2013)
Entries after “also recorded” stand apart in the source; their conditions may differ.

Legend:
3T3-L1 cells = experiment: Western blot of cellular levels of O-GlcNAc-modified proteins in 3T3-L1 cells; assay type: cell-based; conditions: 100 μM, 16 hours, anti-O-GlcNAc mAb CTD110.6, compared to control
Experimental: FIGS. 1A-B show Western blots of proteins from 3T3-L1 cells cultured for 16 hours in the presence or absence of 100 μM of Compound 1 (Table 1). Incubation of 3T3-L1 cells with Compound 1 causes an increase in cellular levels of O-GlcNAc-modified proteins; plus signs (“+”) indicate presence of Compound 1, while minus signs (“−”) indicate absence of Compound 1. FIG. 1A: Western blot analysis of cellular levels of O-GlcNAc-modified proteins using anti-O-GlcNAc MAb CTD 110.6 followed by an anti-mouse IgG-HRP conjugate.
Western Blot Analyses: 3T3-L1 adipocytes were treated with Compound 1 at 100 μM for 16 hours. Cells were harvested by adding 400 μL of 1% SDS with 50 mM beta-ME, boiling this for 10 minutes, using these lysates in subsequent Western blots. Briefly, samples were separated by SDS-PAGE (10% gels), transferred to nitrocellulose membrane (Bio-Rad), blocked for one hour at room temperature (RT) with 1% bovine serum albumin (BSA) in PBS containing 0.1% Tween-20 (PBS-T) and then subsequently probed with the appropriate primary antibody delivered in 1% BSA in PBS-T for overnight at 4° C. […]

O-GlcNAcase = target: T1, O-GlcNAcase (Homo sapiens, UniProt O60502); experiment: Assay for determination of K1 values for inhibition of O-GlcNAcase activity; assay type: biochemical; conditions: pNP-GlcNAc 0.5 mM, PBS buffer pH 7.4, 37° C., Dixon plots
T1 sequence (O60502 1-916): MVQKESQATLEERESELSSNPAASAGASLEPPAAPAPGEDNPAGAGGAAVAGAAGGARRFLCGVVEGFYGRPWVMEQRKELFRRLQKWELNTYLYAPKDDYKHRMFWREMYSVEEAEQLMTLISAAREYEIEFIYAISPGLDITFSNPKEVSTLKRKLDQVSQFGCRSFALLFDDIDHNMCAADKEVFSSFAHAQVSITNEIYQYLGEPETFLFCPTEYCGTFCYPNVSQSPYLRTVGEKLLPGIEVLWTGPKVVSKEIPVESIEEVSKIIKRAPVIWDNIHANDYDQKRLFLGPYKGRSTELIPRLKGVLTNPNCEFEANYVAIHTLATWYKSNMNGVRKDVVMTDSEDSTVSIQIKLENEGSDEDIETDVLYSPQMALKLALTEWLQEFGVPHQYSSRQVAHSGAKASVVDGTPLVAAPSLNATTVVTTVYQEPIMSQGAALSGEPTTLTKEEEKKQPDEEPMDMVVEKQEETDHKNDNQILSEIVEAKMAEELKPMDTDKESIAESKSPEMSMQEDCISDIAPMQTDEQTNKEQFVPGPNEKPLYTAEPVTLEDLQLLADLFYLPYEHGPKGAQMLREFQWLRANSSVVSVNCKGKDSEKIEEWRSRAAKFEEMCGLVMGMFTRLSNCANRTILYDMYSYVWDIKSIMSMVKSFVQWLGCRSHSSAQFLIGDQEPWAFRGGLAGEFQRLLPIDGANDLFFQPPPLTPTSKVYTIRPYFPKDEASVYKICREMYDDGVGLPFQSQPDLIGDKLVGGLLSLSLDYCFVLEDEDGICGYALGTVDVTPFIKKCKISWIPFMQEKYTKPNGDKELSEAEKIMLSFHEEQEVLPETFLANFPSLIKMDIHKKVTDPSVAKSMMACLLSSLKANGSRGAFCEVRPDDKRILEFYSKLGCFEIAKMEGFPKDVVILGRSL
Experimental: Assay for Determination of […] for Inhibition of O-GlcNAcase Activity Experimental procedure for kinetic analyses: Enzymatic reactions were carried out in PBS buffer (pH 7.4) using pNP-GlcNAc as a substrate (0.5 mM) and monitored continuously at 37° C. at 400 nm using a Cary 3E UV-VIS spectrophotometer equipped with a Peltier temperature controller. Reactions were pre-heated in a 500 μl, quartz cuvette for approximately 5 minutes followed by addition of 10 μL enzyme via syringe (final enzyme concentration 0.002 mg/mL). Reaction velocities were determined by linear regression of the linear region of the reaction progress curve between the first and third minutes. An inhibitor concentration range of ⅕ to 5 times K1 was used in each case. […] All K1 values are determined using linear regression of Dixon plots.

## CC(=O)N[C@H]1CN2CC[C@H](O)[C@@H]2[C@@H](O)[C@@H]1O [Compound 1]
3T3-L1 cells
  cellular levels of O-GlcNAc-modified proteins: Marked increases; also recorded: increase
O-GlcNAcase
  Ki: 670 nM
